Patent US20250296971A1, “GASTRIC INHIBITORY PEPTIDE RECEPTOR LIGANDS” (priority 2021, published 2025)
*1 amine or outer side, *2 acyl side, *3 side chain or, on linkers, in order; H or OH if unused. Where a SMILES comes first, the peptide text is derived from it. Bridges are numbered along the chain shown (N, C = ends). [ ]: non-standard residue; d: D form. The star is where a group is joined. NH(1-deoxy-D-glucityl) = OC[C@@H](O)[C@@H](O)[C@H](O)[C@@H](O)CN*; DOTA = O=C(O)CN1CCN(CC(=O)O)CCN(CC(=O)*)CCN(CC(=O)O)CC1; Trp(5-Cl) = N[C@@H](Cc1c[nH]c2ccc(Cl)cc12)C(=O)O; Pyridine(2,6-diCH2) = c1cc(C[*:1])nc(C[*:2])c1; Pro(4R-NH2) = N[C@H]1CN[C@H](C(=O)O)C1; Glutaryl = O=C(CCCC(=O)[*:2])[*:1]; X1 = O=C(CN1CCC(N[*:1])CC1)[*:2]; Api = NC1(C(=O)O)CCNCC1

How the values were obtained:
Human GIPR = target: T1, Human GIPR (Homo sapiens, UniProt P48546); experiment: Radioligand binding assay, human GIPR; settings: 111In-labeled compound, 6 h, 37° C., read-out: pKD Category (converted)
T1 construct: host or cells: CHO-K1 or CHO-VGT
T1 sequence (P48546 22-466): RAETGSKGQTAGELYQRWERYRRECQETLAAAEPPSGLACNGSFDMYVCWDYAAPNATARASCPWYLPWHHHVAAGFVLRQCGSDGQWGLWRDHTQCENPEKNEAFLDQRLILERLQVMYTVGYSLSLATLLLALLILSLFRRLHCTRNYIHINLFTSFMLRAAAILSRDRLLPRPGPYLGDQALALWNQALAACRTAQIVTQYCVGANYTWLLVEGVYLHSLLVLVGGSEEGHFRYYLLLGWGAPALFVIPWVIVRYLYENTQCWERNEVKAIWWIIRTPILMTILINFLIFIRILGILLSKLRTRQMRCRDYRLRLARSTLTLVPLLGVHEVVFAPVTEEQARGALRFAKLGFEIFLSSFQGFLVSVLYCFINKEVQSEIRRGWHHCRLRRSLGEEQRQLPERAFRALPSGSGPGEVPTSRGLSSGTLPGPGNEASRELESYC
Method: In order to assess the affinity of ^111In-labeled compounds to the GIPR receptor of different species, a radioligand binding assay was established.
CHO-K1 cells (GenScript Biotech, #M00486) were stably transfected with the human GIPR. CHO-K1-hGIPR cells were cultured in Ham's F12 medium (Sigma-Aldrich, #N4888) including 10% fetal calf serum (FCS), 2 mM L-glutamine, 100 U/mL penicillin, 100 µg/mL streptomycin, 200 µg/mL Zeocin and 100 µg/mL HygromycinB. To evaluate the species cross-reactivity, CHO-VGT cells were transfected with the human, dog, rat and mouse GIPR (Inscreenex GmbH), which were cultured in DMEM/Ham's F12 Medium 1:1 (Biochrom, #F485) including 5% fetal calf serum (FCS), 2 mM L-glutamine, 100 U/mL penicillin and 100 μg/mL streptomycin. Cells were detached with Accutase (Biolegend, #BLD-423201) and counted using a particle counter (CASY Model TT; Schärfe Systems). Cell concentrations were adjusted to 3×10^5 mL^−1, and 1.000 μL of the suspension per well were dispensed into flat-clear-bottom 24 well plates.
Approximately 24 hours after re-seeding, the medium was aspirated and the cells were washed once with 700 μL assay medium (Ham's medium with 20 mM HEPES). […]
At the end of incubation time, cells were washed and subsequently harvested in 300 μL RIPA buffer containing PIC. Radioactivity of the cell lysate of each well was counted using a gamma counter (Perkin Elmer). […]

[1] = target: T2, GIPR (CHO-K1-hGIPR cells) (Homo sapiens, UniProt P48546); experiment: FACS binding assay; settings: competition with 20 nM GIP-057, 4° C., 1 hour, read-out: pIC50 Category (converted)
T2 construct: host or cells: CHO-K1
T2 sequence (P48546 22-466): T1 sequence (P48546 22-466)
Method in brief: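 CHO-K1 cells stably expressing human GIPR were detached with Accutase, suspended at 500.000 cells per mL in PBS with 1% FCS, and washed ice-cold. Bound peptide was detected with 1 μg/mL APC-streptavidin for 30 min on ice.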

Kd (Human GIPR): < 0.316 nM
IC50 [1]: < 10 nM
SMILES: CC[C@H](C)[C@@H]1NC(=O)[C@H](CC(C)C)NC(=O)C2(CCN(C(=O)CN3CCN(CC(=O)O)CCN(CC(=O)O)CCN(CC(=O)O)CC3)CC2)NC(=O)[C@@H](NC(=O)[C@@H](CC(C)C)NC(=O)[C@H](CCC(=O)O)NC(=O)[C@@H]2C[C@@H](N)CN2C(=O)[C@H](Cc2c[nH]c3ccc(Cl)cc23)NC(=O)[C@H](Cc2c[nH]c3ccccc23)NC(=O)[C@H](CC(=O)O)NC(=O)CCCC(=O)NC[C@H](O)[C@@H](O)[C@H](O)[C@H](O)CO)CSCc2cccc(n2)CSC[C@@H](C(=O)NC2CCN(CC(=O)N[C@H](CCC(=O)NC[C@H](O)[C@@H](O)[C@H](O)[C@H](O)CO)C(N)=O)CC2)NC1=O [GIP-001, AGLU-Glutar-Asp-Trp-5Clw-Tap-Glu-leu-[Cys(2Lut)-Apc(DOTA)-Leu-Ile-Cys]-APAc-glu(AGLU)-NH2] ({NH(1-deoxy-D-glucityl)-Glutaryl}-DW[Trp(5-Cl)][Pro(4R-NH2)]E[dL]C[Api](DOTA)LIC[X1][dE](NH(1-deoxy-D-glucityl))-NH2; linker 7-11 via Pyridine(2,6-diCH2))
